Experimental data reported in patent publication US9487510B2, “Substituted heterocyclic acetamides as kappa opioid receptor (KOR) agonists” (Dr. Reddy's Laboratories Ltd., priority 2012, dated 2016).
Where a name gives a salt, the structure may show the parent alone.

Target: human KOR receptor (Homo sapiens, UniProt P41145)
Experiment: IP-One HTRF assay, potency of KOR agonists, dose-response in transiently transfected COS-7 cells
Format: cell-based

Chain of human KOR receptor (P41145 whole entry): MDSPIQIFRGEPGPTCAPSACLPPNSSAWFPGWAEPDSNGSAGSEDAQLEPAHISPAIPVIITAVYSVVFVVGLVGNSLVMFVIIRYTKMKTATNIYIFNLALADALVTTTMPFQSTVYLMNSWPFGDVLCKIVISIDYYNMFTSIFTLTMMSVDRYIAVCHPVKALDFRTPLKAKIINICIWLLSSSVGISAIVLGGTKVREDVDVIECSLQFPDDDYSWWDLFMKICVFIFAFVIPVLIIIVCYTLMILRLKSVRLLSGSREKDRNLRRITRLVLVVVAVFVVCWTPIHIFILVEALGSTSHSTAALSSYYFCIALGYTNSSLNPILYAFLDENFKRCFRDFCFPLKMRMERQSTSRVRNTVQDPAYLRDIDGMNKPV

SMILES | EC50 [nM]
CN(C)C(=O)c1cccc([C@@H](CN2CC[C@H](O)C2)N(C)C(=O)Cc2ccc3ncc(=O)[nH]c3c2)c1 [Example 211, 3-((S)-2-((S)-3-hydroxypyrrolidin-1-yl)-1-(N-methyl-2-(3-oxo-3,4-dihydroquinoxalin-6-yl)acetamido)ethyl)-N,N-dimethylbenzamide] | ≤ 50
CN(C(=O)Cc1ccc2c(c1)NC(=O)C2)[C@H](CN1CC[C@H](F)C1)c1cccc(OCC(=O)O)c1 [Example 29, 2-(3-((S)-2-((S)-3-fluoropyrrolidin-1-yl)-1-(N-methyl-2-(2-oxoindolin-6-yl)acetamido)ethyl)phenoxy)acetic acid] | ≤ 50
CN(C(=O)Cc1ccc2c(c1)NC(=O)C2)[C@H](CN1CC[C@H](O)C1)c1cccc(-c2nnn(C)n2)c1 [Example 44, N-((S)-2-((S)-3-hydroxypyrrolidin-1-yl)-1-(3-(2-methyl-2H-tetrazol-5-yl)phenyl)ethyl)-N-methyl-2-(2-oxoindolin-6-yl)acetamide] | 51 to 100
CN(C(=O)Cc1ccc2c(c1)NC(=O)C2)[C@H](CN1CC[C@H](O)C1)c1cccc(-c2cncn2C)c1 [Example 222, N-((S)-2-((S)-3-hydroxypyrrolidin-1-yl)-1-(3-(1-methyl-1H-imidazol-5-yl)phenyl)ethyl)-N-methyl-2-(2-oxoindolin-6-yl)acetamide] | ≤ 50
CN(C(=O)Cc1ccc2c(c1)NC(=O)C2)[C@H](CN1CC[C@H](O)C1)c1cc(F)cc(-c2nccs2)c1 [Example 43, N-((S)-1-(3-fluoro-5-(thiazol-2-yl)phenyl)-2-((S)-3-hydroxypyrrolidin-1-yl)ethyl)-N-methyl-2-(2-oxoindolin-6-yl)acetamide] | ≤ 50
CN(C(=O)Cc1ccc2c(c1)NS(=O)(=O)C2)[C@H](CN1CC[C@H](O)C1)c1cccc(-c2ncc[nH]2)c1 [Example 202, N-((S)-1-(3-(1H-imidazol-2-yl)phenyl)-2-((S)-3-hydroxypyrrolidin-1-yl)ethyl)-2-(2,2-dioxido-1,3-dihydrobenzo[c]isothiazol-6-yl)-N-methylacetamide] | 51 to 100
CN(C(=O)Cc1ccc2sc(=O)[nH]c2c1)[C@H](CN1CC[C@H](O)C1)c1cccc(C(=O)O)c1 [Example 18, 3-((S)-2-((S)-3-hydroxypyrrolidin-1-yl)-1-(N-methyl-2-(2-oxo-2,3-dihydrobenzo[d]thiazol-5-yl)acetamido)ethyl)benzoic acid] | ≤ 50
CN(C(=O)Cc1ccc2c(c1)NC(=O)CS2)[C@H](CN1CC[C@H](O)C1)c1cccc(F)c1 [Example 133, N-((S)-1-(3-fluorophenyl)-2-((S)-3-hydroxypyrrolidin-1-yl)ethyl)-N-methyl-2-(3-oxo-3,4-dihydro-2H-benzo[b][1,4]thiazin-6-yl)acetamide] | ≤ 50
CN(C)C(=O)c1cccc([C@@H](CN2CC[C@H](O)C2)N(C)C(=O)Cc2ccc3c(c2)NS(=O)(=O)C3)c1 [Example 210, 3-((S)-1-(2-(2,2-dioxido-1,3-dihydrobenzo[c]isothiazol-6-yl)-N-methylacetamido)-2-((S)-3-hydroxypyrrolidin-1-yl)ethyl)-N,N-dimethylbenzamide] | ≤ 50
O=C1CS(=O)(=O)c2ccc(CC(=O)N[C@H](CN3CCCC3)c3ccccc3)cc2N1 [Example 121, (S)-2-(1,1-dioxido-3-oxo-3,4-dihydro-2H-benzo[b][1,4]thiazin-6-yl)-N-(1-phenyl-2-(pyrrolidin-1-yl)ethyl)acetamide] | ≤ 50
Cc1nnc(-c2cccc([C@@H](CN3CC[C@H](O)C3)N(C)C(=O)Cc3ccc4c(c3)NC(=O)C4)c2)s1 [Example 221, N-((S)-2-((S)-3-hydroxypyrrolidin-1-yl)-1-(3-(5-methyl-1,3,4-thiadiazol-2-yl)phenyl)ethyl)-N-methyl-2-(2-oxoindolin-6-yl)acetamide] | ≤ 50
Cc1nc(-c2cccc([C@@H](CN3CC[C@H](O)C3)N(C)C(=O)Cc3ccc4c(c3)NC(=O)C4)c2)cs1 [Example 220, N-((S)-2-((S)-3-hydroxypyrrolidin-1-yl)-1-(3-(2-methylthiazol-4-yl)phenyl)ethyl)-N-methyl-2-(2-oxoindolin-6-yl)acetamide] | ≤ 50
CN(C(=O)Cc1ccc2c(c1)NC(=O)CS2(=O)=O)[C@H](CN1CC[C@H](O)C1)c1cccc(F)c1 [Example 124, 2-(1,1-dioxido-3-oxo-3,4-dihydro-2H-benzo[b][1,4]thiazin-6-yl)-N-((S)-1-(3-fluorophenyl)-2-((S)-3-hydroxypyrrolidin-1-yl)ethyl)-N-methylacetamide] | ≤ 50
CCN(CC)C(=O)c1cccc([C@@H](CN2CC[C@H](O)C2)N(C)C(=O)Cc2ccc3c(c2)NC(=O)C3)c1 [Example 39, N,N-diethyl-3-((S)-2-((S)-3-hydroxypyrrolidin-1-yl)-1-(N-methyl-2-(2-oxoindolin-6-yl)acetamido)ethyl)benzamide] | ≤ 50
CN(C(=O)Cc1ccc2oc(=O)n(CC(=O)O)c2c1)[C@H](CN1CC[C@H](O)C1)c1ccccc1 [Example 86] | ≤ 50
CN(C(=O)Cc1ccc2oc(=O)n(Cc3ccc(C#N)cc3)c2c1)[C@H](CN1CC[C@H](O)C1)c1ccccc1 [Example 75, 2-(3-(4-cyanobenzyl)-2-oxo-2,3-dihydrobenzo[d]oxazol-5-yl)-N-((S)-2-((S)-3-hydroxypyrrolidin-1-yl)-1-phenylethyl)-N-methylacetamide] | ≤ 50
CCC#Cc1cccc([C@@H](CN2CC[C@H](O)C2)N(C)C(=O)Cc2ccc3sc(=O)[nH]c3c2)c1 [Example 205, N-((S)-1-(3-(but-1-yn-1-yl)phenyl)-2-((S)-3-hydroxypyrrolidin-1-yl)ethyl)-N-methyl-2-(2-oxo-2,3-dihydrobenzo[d]thiazol-5-yl)acetamide] | ≤ 50
O=C(O)COc1cccc(C(CN2CC[C@H](O)C2)NC(=O)Cc2ccc3oc(=O)[nH]c3c2)c1 (mixture of isomers) [Example 101, (S)-2-(3-(2-(3-hydroxypyrrolidin-1-yl)-1-(2-(2-oxo-2,3-dihydrobenzo[d]oxazol-5-yl)acetamido)ethyl)phenoxy)acetic acid] | ≤ 50
Cc1nc(-c2cccc([C@@H](CN3CC[C@H](O)C3)N(C)C(=O)Cc3ccc4sc(=O)[nH]c4c3)c2)no1 [Example 183, N-((S)-2-((S)-3-hydroxypyrrolidin-1-yl)-1-(3-(5-methyl-1,2,4-oxadiazol-3-yl)phenyl)ethyl)-N-methyl-2-(2-oxo-2,3-dihydrobenzo[d]thiazol-5-yl)acetamide] | ≤ 50
O=C1CS(=O)(=O)c2ccc(CC(=O)N(CC(F)(F)F)[C@H](CN3CC[C@H](O)C3)c3cccc(OC(F)(F)F)c3)cc2N1 [Example 16, 2-(1,1-dioxido-3-oxo-3,4-dihydro-2H-benzo[b][1,4]thiazin-6-yl)-N-((S)-2-((S)-3-hydroxypyrrolidin-1-yl)-1-(3-(trifluoromethoxy)phenyl)ethyl)-N-(2,2,2-trifluoroethyl)acetamide 2,2,2-trifluoroacetate] | ≤ 50
CN(C(=O)Cc1ccc2c(c1)NS(=O)(=O)C2)[C@H](CN1CC[C@H](O)C1)c1cccc(C#N)c1 [Example 203, N-((S)-1-(3-cyanophenyl)-2-((S)-3-hydroxypyrrolidin-1-yl)ethyl)-2-(2,2-dioxido-1,3-dihydrobenzo[c]isothiazol-6-yl)-N-methylacetamide] | ≤ 50
CN(C(=O)Cc1ccc2c(c1)NC(=O)C2)C(CN1CC[C@H](O)C1)c1cccc(OCC(=O)O)c1 (stereo partly drawn) [Example 95, (S)-2-(3-(2-(3-hydroxypyrrolidin-1-yl)-1-(N-methyl-2-(2-oxoindolin-6-yl)acetamido)ethyl)phenoxy) acetic acid hydrochloride] | ≤ 50
CN(C(=O)Cc1ccc2c(c1)NC(=O)CS2(=O)=O)[C@H](CN1CC[C@H](O)C1)c1cccc(OCC(F)(F)F)c1 [Example 144, 2-(1,1-dioxido-3-oxo-3,4-dihydro-2H-benzo [b][1,4]thiazin-6-yl)-N-((S)-2-((S)-3-hydroxypyrrolidin-1-yl)-1-(3-(2,2,2-trifluoroethoxy)phenyl)ethyl)-N-methylacetamide] | ≤ 50
CN(C(=O)Cc1ccc2c(c1)NC(=O)C2)[C@H](CN1CC[C@H](O)C1)c1cccc(-c2cncs2)c1 [Example 216, N-((S)-2-((S)-3-hydroxypyrrolidin-1-yl)-1-(3-(thiazol-5-yl)phenyl)ethyl)-N-methyl-2-(2-oxoindolin-6-yl)acetamide] | ≤ 50
CN(C(=O)Cc1ccc2sc(=O)[nH]c2c1)[C@H](CN1CC[C@H](O)C1)c1cccc(-c2nccs2)c1 [Example 192, N-((S)-2-((S)-3-hydroxypyrrolidin-1-yl)-1-(3-(thiazol-2-yl)phenyl)ethyl)-N-methyl-2-(2-oxo-2,3-dihydrobenzo[d]thiazol-5-yl)acetamide] | 101 to 1000
CN(C(=O)Cc1ccc2sc(=O)[nH]c2c1)[C@H](CN1CC[C@H](O)C1)c1cccc(C(N)=O)c1 [Example 19, 3-((S)-2-((S)-3-hydroxypyrrolidin-1-yl)-1-(N-methyl-2-(2-oxo-2,3-dihydrobenzo [d]thiazol-5-yl)acetamido)ethyl)benzamide] | ≤ 50
Cc1ncc(-c2cccc([C@@H](CN3CC[C@H](O)C3)N(C)C(=O)Cc3ccc4c(c3)NC(=O)C4)c2)s1 [Example 219, N-((S)-2-((S)-3-hydroxypyrrolidin-1-yl)-1-(3-(2-methylthiazol-5-yl)phenyl)ethyl)-N-methyl-2-(2-oxoindolin-6-yl)acetamide] | ≤ 50
CN(C(=O)Cc1ccc2c(c1)NC(=O)CS2)[C@H](CN1CC[C@H](O)C1)c1cccc(C#N)c1 [Example 152, N-((S)-1-(3-cyanophenyl)-2-((S)-3-hydroxypyrrolidin-1-yl)ethyl)-N-methyl-2-(3-oxo-3,4-dihydro-2H-benzo[b][1,4]thiazin-6-yl)acetamide] | ≤ 50
CN(C(=O)Cc1ccc2c(c1)NC(=O)CS2(=O)=O)[C@H](CN1CC[C@H](O)C1)c1cc(F)cc(OCC(F)(F)F)c1 [Example 149, 2-(1,1-dioxido-3-oxo-3,4-dihydro-2H-benzo[b][1,4]thiazin-6-yl)-N-((S)-1-(3-fluoro-5-(2,2,2-trifluoroethoxy)phenyl)-2-((S)-3-hydroxypyrrolidin-1-yl)ethyl)-N-methylacetamide] | ≤ 50
